Measured values reported in patent US20230129364A1, “PYRROLIDINE DERIVATIVE, AND PHARMACEUTICAL COMPOSITION FOR PREVENTING OR TREATING BETA-AMYLOID OR TAU PROTEIN-ASSOCIATED DISEASES CONTAINING SAME” (YONSEI UNIVERSITY, UNIVERSITY - INDUSTRY FOUNDATION (UIF), priority 2019, published 2023).

Assays:
Type in all cases: biochemical
[1] = target: T1, aggregated tau protein (wild-type K18) (Homo sapiens, UniProt P10636); assay: Tau protein aggregate degradation test (thioflavin T assay); details: pre-aggregated tau, further 5 days at 37° C., ThT fluorescence vs control = 100%
T1 construct: Tau protein (wild-type K18)
T1 sequence (P10636 561-685 limits assumed): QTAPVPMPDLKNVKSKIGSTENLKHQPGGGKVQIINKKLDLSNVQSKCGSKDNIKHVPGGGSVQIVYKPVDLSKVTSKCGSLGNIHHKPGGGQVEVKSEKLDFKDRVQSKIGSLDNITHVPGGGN
Procedure: Tau protein (wild-type K18) was dissolved in phosphate-buffered saline (PBS, pH 7.4) at a concentration of 1 mg/mL to prepare a tau protein solution. 0.1 mg/mL of heparin and 100 μM dithiothreitol (DTT) were added to 1 mg/mL of the tau protein solution, followed by incubation at 37° C. for 5 days to induce tau protein aggregation. The aggregated tau protein was mixed with each test compound in an amount of 50 or 500 μM such that the final concentration reached 0.5 mg/mL, followed by further incubation at 37° C. for 5 days to induce reaction.
The degradation effect of each compound on the tau aggregates was measured by thioflavin T (ThT) assay (see Example 2). More specifically, 25 μL of the reaction solution was charged in each well of a 96-well plate for fluorescence analysis and 75 μL of the prepared thioflavin-T solution was charged in each well. The reaction was allowed to proceed at room temperature in a dark laboratory for 5 minutes and then fluorescence values were measured at an excitation wavelength of 450 nm and an emission wavelength of 485 nm using a multi-mode microplate reader.
The ratio of the fluorescence value measured in the group obtained by treating with each test compound to 100% of the fluorescence value of the group (control group) obtained by treating only with tau proteins and inducing aggregation for 5 days is set forth in Table 6 below: […]

[2] = target: T2, Tau protein (wild-type K18) (Homo sapiens, UniProt P10636); assay: Tau protein aggregation inhibition test (thioflavin T assay); details: heparin/DTT-induced aggregation, 37° C. 5 days, ThT fluorescence vs tau-only control = 100%
T2 construct: Tau protein (wild-type K18)
T2 sequence (P10636 561-685 limits assumed): as above
Procedure: Tau protein (wild-type K18) was dissolved in phosphate-buffered saline (PBS, pH 7.4) at a concentration of 1 mg/mL to prepare a tau protein solution. In order to induce aggregation of tau proteins, 0.1 mg/mL of heparin and 100 μM dithiothreitol (DTT) were added to 1 mg/mL of the tau protein solution, followed by incubation at 37° C. for 5 days. At this time, the result was mixed with each test compound (50, 500 μM) such that the final concentration reached 0.5 mg/mL, followed by further incubation.
The inhibitory effect of each compound against tau aggregation was measured based on the intensity of fluorescence by thioflavin T (ThT) assay (see Example 2). More specifically, 25 μL of the reaction solution was charged in each well of a 96-well plate for fluorescence analysis, and 75 μL of the prepared thioflavin-T solution was then charged in each well. The reaction was allowed to proceed at room temperature in a dark laboratory for 5 minutes, and then fluorescence values were measured at an excitation wavelength of 450 nm and an emission wavelength of 485 nm using a multi-mode microplate reader.
The ratio of the fluorescence value measured in the group obtained by treating with each test compound to 100% of the fluorescence value of the group (control group) obtained by treating only with tau proteins and inducing aggregation for 5 days is set forth in Table 5 below: […]

[3] = target: T3, aggregated beta-amyloid; human Aβ 1-42 (UniProtKB-P05067, a.a. 672-713) (Homo sapiens, UniProt P05067); assay: Beta-amyloid aggregate degradation test (thioflavin T assay); details: pre-aggregated Aβ, further 3 days at 37° C., ThT fluorescence vs control = 100%
T3 construct: UniProtKB-P05067, a.a; 672-713
T3 sequence (P05067 672-713): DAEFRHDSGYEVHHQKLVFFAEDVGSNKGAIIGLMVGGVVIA
Procedure: Aβ (beta-amyloid; human A3 1-42 monomer (UniProtKB-P05067, a.a. 672-713)) was dissolved at a concentration of 10 mM in dimethyl sulfoxide (DMSO), and the resulting solution was diluted to 250 μM using distilled water, and then incubated at 37° C. for 3 days to induce aggregation. The aggregated beta-amyloid was added with each test compound in an amount of 50 or 500 μM such that the final concentration reached 25 μM, and was further cultured at 37° C. for 3 days to induce reaction. The aggregate degradation effect of each test compound was measured by thioflavin T (ThT) assay (see Example 2). Specifically, 25 μL of the reaction solution was charged in each well of a 96-well plate for fluorescence analysis and 75 μL of the prepared thioflavin-T solution was charged in each well. The reaction was allowed to proceed at room temperature in a dark laboratory for 5 minutes and then fluorescence values were measured at an excitation wavelength of 450 nm and an emission wavelength of 485 nm using a multi-mode microplate reader. The ratio of the fluorescence value measured in the group obtained by treating with each test compound to 100% of the fluorescence value of the group (control group) obtained by treating only with beta-amyloids and inducing aggregation for 3 days is set forth in Table 4 below: […]

Structure (SMILES)	ThT fluorescence remaining (% of control) ([1]; 50 uM test compound)	ThT fluorescence remaining (% of control) ([1]; 500 uM test compound)	Tau aggregation remaining (ThT fluorescence, % of tau-only control) ([2]; 500 uM test compound)	Beta-amyloid aggregate degradation activity (% of control) ([3]; 50 uM test compound)	Beta-amyloid aggregate degradation activity (% of control) ([3]; 500 uM test compound)	Tau aggregation remaining (ThT fluorescence, % of tau-only control) ([2]; 50 uM test compound)
CCN1C(=O)/C(=C/c2ccoc2)NC1=S [DN204814, (Z)-3-ethyl-5-(furan-3-ylmethylene)-2-thioxoimidazolidin-4-one]	30.07 % of control	−22.72 % of control	28.47 % of control	58.02 % of control	−40.60 % of control	–
CCN1C(=O)/C(=C/c2c[nH]c3ncccc23)NC1=S [DN204816, (Z)-5-((1H-pyrrolo[2,3-b]pyridin-3-yl)methylene)-3-ethyl-2-thioxoimidazolidin-4-one]	40.39 % of control	33.92 % of control	56.3 % of control	–	92.41 % of control	81.42 % of control
CCN1C(=O)/C(=C/c2c[nH]c3cccnc23)NC1=S [DN204817, (Z)-5-((1H-pyrrolo[3,2-b]pyridin-3-yl)methylene)-3-ethyl-2-thioxoimidazolidin-4-one]	49.84 % of control	43.06 % of control	66.18 % of control	–	78.39 % of control	87.3 % of control
O=C1NC(=S)S/C1=C\c1csc2ccccc12 [DN204818, (Z)-5-(benzo[b]thiophen-3-ylmethylene)-2-thioxothiazolidin-4-one]	14.94 % of control	5.16 % of control	1.71 % of control	95.08 % of control	35.83 % of control	20.35 % of control
CCN1C(=O)C(Cc2ccc3occc3c2)NC1=S (centres unmarked) [DN205353, 5-(benzofnran-5-ylmethyl)-3-ethyl-2-thioxoimidazolidin-4-one]	66.25 % of control	80.59 % of control	66.948 % of control	–	90.19 % of control	61.551 % of control
O=C1NC(=S)S/C1=C\c1c[nH]c2ncccc12 [DN205355, (Z)-5-((1H-pyrrolo[2,3-b]pyridin-3-yl)methylene)-2-thioxothiazolidin-4-one]	49.41 % of control	30.65 % of control	25.883 % of control	93.80 % of control	44.61 % of control	40.038 % of control
CCN1C(=O)/C(=C/c2c[nH]c3ccncc23)SC1=S [DN205780, (Z)-5-((1H-pyrrolo[3,2-c]pyridin-3-yl)methylene)-3-ethyl-2-thioxothiazolidin-4-one]	27.50 % of control	10.84 % of control	33.02 % of control	51.31 % of control	35.73 % of control	69.83 % of control
CCN1C(=O)/C(=C/c2c[nH]c3cccnc23)SC1=S [DN205781, (Z)-5-((1H-pyrrolo[3,2-b]pyridin-3-yl)methylene)-3-ethyl-2-thioxothiazolidin-4-one]	28.74 % of control	23.79 % of control	52.99 % of control	85.76 % of control	55.35 % of control	74.46 % of control
